Results as given in publication PMC10816808, “Enhancement of the Antitumor and Antimetastatic Effect of Topotecan and Normalization of Blood Counts in Mice with Lewis Carcinoma by Tdp1 Inhibitors—New Usnic Acid Derivatives” (International Journal of Molecular Sciences, 2024).

Columns and labels:
Type in all cases: cell-based
[1] = MTT cytotoxicity test, A-549; settings: human, A-549 cells (lung cancer), read-out: semitoxic concentration (CC50), A-549
Source text: (§1) Compounds 6 and 8 with a bromophenol residue in the enamine fragment have a weak or moderate effect on cell survival (Table 1 and Supplementary Figure S1).
(§2) Cytotoxicity of the compounds against human tumor cell lines: HeLa (cervical cancer), HCT-116 (colorectal cancer), A-549 (lung cancer), MCF-7 (breast cancer), T98G (glioblastoma), HepG2 (hepatocarcinoma), and nontumor cell lines: MRC-5 (lung fibroblasts) and HEK293A (human embryonic kidney) was examined using the MTT test. HCT-116 and MRC-5 cell lines were provided by the Cell Culture Bank of the State Research Center for Virology and Biotechnology Vector, Novosibirsk, Russia. A-549, MCF-7, and T98G cell lines were obtained from the Russian Cell Culture Collection (RCCC) Institute of Cytology RAS (St. Petersburg, Russia). HEK293A cells were purchased (ThermoFisher Scientific, Waltham, MA, USA).
(§3) The cell culture medium DMEM medium (Invitrogen, Carlsbad, CA, USA) contained 10% fetal bovine serum (FBS) (Invitrogen), penicillin (100 units/mL), and streptomycin (100 µg/mL). Cells were seeded into 96-well plates at 5000 cells per well and grown at 37 °C and 5% CO2 in a humid atmosphere. At 30–50% confluence, the tested compounds were added to the medium to a final DMSO content of 1%. Control wells contained 1% DMSO. To determine the cytotoxicity of Tdp1 inhibitors, the cells were treated with compounds with concentrations ranging from 1 to 100 µM for 72 h at 37 °C for 72 h. All measurements were repeated a minimum of twice.

[2] = MTT cytotoxicity test, HCT-116; settings: human, HCT-116 cells (colorectal cancer), read-out: semitoxic concentration (CC50), HCT-116
Source text: as §1, §2, §3

[3] = MTT cytotoxicity test, HEK293A; settings: human, HEK293A cells (embryonic kidney, nontumor), read-out: semitoxic concentration (CC50), HEK293A
Source text: as §1, §2, §3

[4] = MTT cytotoxicity test, HeLa; settings: human, HeLa cells (cervical cancer), read-out: semitoxic concentration (CC50), HeLa
Source text: as §1, §2, §3

[5] = MTT cytotoxicity test, MCF-7; settings: human, MCF-7 cells (breast cancer), read-out: semitoxic concentration (CC50), MCF-7
Source text: as §1, §2, §3

[6] = MTT cytotoxicity test, MRC-5; settings: human, MRC-5 cells (lung fibroblasts, nontumor), read-out: semitoxic concentration (CC50), MRC-5
Source text: as §1, §2, §3

[7] = MTT cytotoxicity test, T98G; settings: human, T98G cells (glioblastoma), read-out: semitoxic concentration (CC50), T98G
Source text: as §1, §2, §3

[8] = test system: various types of cultured cells; assay: MTT test, panel of cultured cell lines; settings: at concentrations up to 100 μM; wide panel of tumor and non-cancerous cell lines
Source text: as §1, §2
as §3, with “To determine the cytotoxicity of Tdp1 inhibitors, the cells were treated with compounds with concentrations ranging from 1 to 100 µM for 72 h at 37 °C for 72 h. All measurements were repeated a minimum of twice.” left out

[9] = Topotecan cytotoxicity with Tdp1 inhibitor (MTT), MRC-5; settings: human, MRC-5 cells (lung fibroblasts, nontumor); topotecan alone or in the presence of 5 µM Tdp1 inhibitor
Source text: (§4) Tdp1 inhibitors combined with topotecan dramatically reduce tumor metastasis. Usnic acid derivatives of the enamine and hydrazonothiazole series turned out to be promising sensitizers of the action of topotecan both on cultured cell lines and on mouse tumors in vivo [30, 32]. We studied the ability of the usnic acid derivatives to sensitize the effects of topotecan on the same panel of cell lines. We used two non-cancerous cell lines MRC-5 and HEK293A, including previously obtained HEK293A Tdp1 knockout cells (for compound 7), and cancerous cell lines HeLa, HCT-116, A-549, MCF-7, T98G. We found the most pronounced and reliable sensitizing effect on cancerous cell lines HeLa, HCT-116, A-549, MCF-7 only for compound 7 (Table 2 and Figures S2 and S3).
as §2, with “HEK293A cells were purchased (ThermoFisher Scientific, Waltham, MA, USA).” left out

HeLa = assay: Topotecan cytotoxicity with Tdp1 inhibitor (MTT), HeLa; settings: Homo sapiens, topotecan alone or in the presence of 5 µM Tdp1 inhibitor
Source text: as §4
as §2, with “HEK293A cells were purchased (ThermoFisher Scientific, Waltham, MA, USA).” left out

[10] = Topotecan cytotoxicity with Tdp1 inhibitor (MTT), HEK293A; settings: human, HEK293A cells (embryonic kidney, nontumor); topotecan alone or in the presence of 5 µM Tdp1 inhibitor
Source text: as §4
as §2, with “HEK293A cells were purchased (ThermoFisher Scientific, Waltham, MA, USA).” left out

HCT-116 = assay: Topotecan cytotoxicity with Tdp1 inhibitor (MTT), HCT-116; settings: Homo sapiens, topotecan alone or in the presence of 5 µM Tdp1 inhibitor
Source text: as §4
as §2, with “HEK293A cells were purchased (ThermoFisher Scientific, Waltham, MA, USA).” left out

A-549 = assay: Topotecan cytotoxicity with Tdp1 inhibitor (MTT), A-549; settings: Homo sapiens, A549; topotecan alone or in the presence of 5 µM Tdp1 inhibitor
Source text: as §4
as §2, with “HEK293A cells were purchased (ThermoFisher Scientific, Waltham, MA, USA).” left out

MCF-7 = assay: Topotecan cytotoxicity with Tdp1 inhibitor (MTT), MCF-7; settings: Homo sapiens, MCF7; topotecan alone or in the presence of 5 µM Tdp1 inhibitor
Source text: as §4
as §2, with “HEK293A cells were purchased (ThermoFisher Scientific, Waltham, MA, USA).” left out

T98G = assay: Topotecan cytotoxicity with Tdp1 inhibitor (MTT), T98G; settings: Homo sapiens, topotecan alone or in the presence of 5 µM Tdp1 inhibitor
Source text: as §4
as §2, with “HEK293A cells were purchased (ThermoFisher Scientific, Waltham, MA, USA).” left out

| SMILES | CC50 at 72 h [1] [µM] | CC50 at 72 h [2] [µM] | CC50 at 72 h [3] [µM] | CC50 at 72 h [4] [µM] | CC50 at 72 h [5] [µM] | CC50 at 72 h [6] [µM] | CC50 at 72 h [7] [µM] | living cells (metabolic activity, MTT) [8] | CC50 [9] [µM] | CC50 (HeLa) [µM] | CC50 [10] [µM] | CC50 (HCT-116) [µM] | CC50 (A-549) [µM] | CC50 (MCF-7) [µM] | CC50 (T98G) [µM] |
| --- | --- | --- | --- | --- | --- | --- | --- | --- | --- | --- | --- | --- | --- | --- | --- |
| C/C(NCCCc1cc(C(C)(C)C)c(O)c(C(C)(C)C)c1)=C1\C(=O)C=C2Oc3c(-c4csc(N/N=C/c5ccc(Br)cc5)n4)c(O)c(C)c(O)c3[C@@]2(C)C1=O [Compound 7, (4E)-10-{2-[(E)-2-[(4-bromophenyl)methylidene]hydrazin-1-yl]-1,3-thiazole-4-yl}-4-(1-{[3-(3,5-di-tret-butyl-4-hydroxyhenyl)propyl]amino}ethylidene)-11,13-dihydroxy-2,12-dimethyl-8-oxatricyclo [7.4.0.02,7]trideca-1(13),6,9,11-tetraen-3,5-dione] | > 100 | > 100 | > 100 | > 100 | > 100 | > 100 | > 100 | more than 50% |  |  |  |  |  |  |  |
| CC[C@@]1(O)C(=O)OCc2c1cc1n(c2=O)Cc2cc3c(CN(C)C)c(O)ccc3nc2-1 [Tpc, topotecan] |  |  |  |  |  |  |  |  | > 10 | 9.9 | 0.033 | 0.81 | 1.5 | 1.4 | 2.5 |
